In PMC11620503 (Antimicrobial Agents and Chemotherapy, 2024) one finds Ki data, which are given here for 1 compound.

Where only a bound is given, the exact number is not on record here.

Holding throughout (assay): Ki app determination (Waley's method)
In test [1] the target is VIM-1 (Pseudomonas aeruginosa, UniProt A0A0F7KYQ8). To be noted: read-out: Ki app; VIM-1; means from three independent studies.
Test [2] deals with KPC-2 (Klebsiella pneumoniae, UniProt Q9F663). To be noted: read-out: Ki app; KPC-2; means from three independent studies.
The target in test [3] is SHV-5 (Klebsiella pneumoniae, UniProt P0A3M1). To be noted: read-out: Ki app; SHV-5; means from three independent studies.
For test [4], the target named is IMP-1 (Serratia marcescens, UniProt P52699). To be noted: read-out: Ki app; IMP-1; means from three independent studies.
Test [5] has as its target OXA-48 (Klebsiella pneumoniae, UniProt Q6XEC0). The settings on record: read-out: Ki app; OXA-48; means from three independent studies.
In test [6] the target is IMP-6 (Serratia marcescens, UniProt P52699, S214G). The settings on record: read-out: Ki app; IMP-6; means from three independent studies.
Test [7] has as its target CTX-M-27 (Escherichia coli, UniProt Q840M4). To be noted: read-out: Ki app; CTX-M-27; means from three independent studies.
The target in test [8] is PDC-11 (Pseudomonas aeruginosa, UniProt P24735, form not given, species not given). To be noted: read-out: Ki app, means from three independent studies.
The target in test [9] is KPC-38 (Klebsiella pneumoniae, UniProt Q9F663). The settings on record: read-out: Ki app, means from three independent studies.
Test [10] has as its target OXA-23 (Acinetobacter baumannii, UniProt Q9L4P2). The settings on record: read-out: Ki app; OXA-23; means from three independent studies.
Test [11] concerns the target SHV-12 (Klebsiella pneumoniae, UniProt P0A3M1, L31Q). The settings on record: read-out: Ki app; SHV-12; means from three independent studies.
Test [12] concerns the target ACT-17 (Enterobacter cloacae complex, UniProt Q8KP20). The settings on record: read-out: Ki app, means from three independent studies.
For test [13], the target named is OXA-24 (Acinetobacter baumannii, UniProt Q8RLA6). To be noted: read-out: Ki app; OXA-24; means from three independent studies.
Test [14] deals with OXA-72 (Acinetobacter baumannii, UniProt Q5XQU0). To be noted: read-out: Ki app; OXA-72; means from three independent studies.
In test [15] the target is CTX-M-15 (Escherichia coli, UniProt Q9EXV5). The settings on record: read-out: Ki app; CTX-M-15; means from three independent studies.
Test [16] has as its target SHV-2 (Klebsiella pneumoniae, UniProt P0A9Z8). To be noted: read-out: Ki app; SHV-2; means from three independent studies.
Test [17] addresses VIM-2 (Escherichia coli, UniProt Q5U7L7). The settings on record: read-out: Ki app; VIM-2; means from three independent studies.
The target of test [18] is OXA-65 (Acinetobacter baumannii, UniProt Q58XD3). To be noted: read-out: Ki app; OXA-65; means from three independent studies.
The target of test [19] is OXA-66 (Acinetobacter baumannii, UniProt Q58XD2). The settings on record: read-out: Ki app; OXA-66; means from three independent studies.
Test [20] has as its target KPC-3 (Klebsiella pneumoniae, UniProt Q9F663, H272Y). The settings on record: read-out: Ki app; KPC-3; means from three independent studies.
Test [21] has as its target CTX-M-14 (Escherichia coli, UniProt Q9L5C7). The settings on record: read-out: Ki app; CTX-M-14; means from three independent studies.

For `NCCN[C@H]1CC[C@H](CC(=O)N[C@H]2Cc3cccc(C(=O)O)c3OB2O)CC1` [Tanibobactam, taniborbactam], the Ki in test [1] was 271 ± 46.7 nM; in test [2], 1.1 ± 0.229 nM; in test [3] it was 5.9 ± 1.8 nM; in test [4] it was more than 100000 nM; in test [5], 204 ± 31 nM; in [6] it was more than 100000 nM. In addition, the Ki in test [7] was 0.0344 ± 0.013 nM; in test [8], 34.6 ± 2.2 nM; in test [9], 0.617 ± 0.0841 nM; in [10] it was more than 100000 nM; in test [11], 4.73 ± 0.182 nM; in test [12] it was 12.6 ± 1.55 nM. Also, the Ki was 2080 nM in [13]; 25200 nM in test [14]; 0.0245 ± 0.0103 nM in test [15]; 20 ± 2.39 nM in test [16]; 322 ± 50 nM in test [17]; more than 100000 nM in [18]. Moreover, the Ki in [19] was determined as 61700 nM; in test [20] it was 0.947 ± 0.259 nM; in test [21], 0.0607 ± 0.0257 nM.
